Experimental data taken from US9326972B2, “Use of phenylmethimazoles, methimazole derivatives, and tautomeric cyclic thiones for the treatment of autoimmune/inflammatory diseases associated with toll-like receptor overexpression” (Ohio University, priority 2004, dated 2016).

Assays:
NOD mice = test: Glucosuria in NOD mice, infection/Coxsackie virus-induced Type 1 diabetes; type: in vivo, mouse
Source text: Mice were housed in germ free facilities, termed clean, or normal facilities where viral infections can occur, termed dirty. Animals showing urine Tes-Tape positivity greater than 1+ are considered positive and to have diabetes (L. S. Wicker, et al., Diabetes, 35:855-60 (1986)). In experiments in a “dirty” animal facility, C10 was effective in retarding the development of glucosuria in the NOD mice. When this was repeated in a “clean” or germ free laboratory, no effect of C10 was noted. What was noted, however, was the onset of glucosuria in the mice was much earlier in the animals maintained in “dirty” as opposed to “clean” mouse facilities. Further, in experiments with 8 mice in each group, even in a dirty facility, the injection of CVB4 Edwards Coxsackie virus advanced the expression of glucosuria (last two rows).
Induction of Diabetes and treatment with drugs. NOD/Lt female mice were from the Jackson Laboratory (Bar Harbor, Me.). All experiments were carried out in accordance with “Guide for Care and Use of Laboratory Animals” (NIH Publication No. 85-23, revised 1985). Mice were injected with 200 μl PBS or 5×10^5 PFU of the CVB4 Edwards Coxsackie virus strain ip (D. V. Serreze, et al., J Virol, 79:1045-52 (2005)). Mice were treated daily with i/p injections of C-10, MMI, 2.5% DMSO(C10 carrier control), or PBS (MMI carrier control). After injections, blood and urinary glucose levels were monitored weekly using Chemstrips (Boehringer Mannheim). Consecutive values of >240 mg/dl on two occasions >24 h apart were considered diagnostic of diabetes. Experiments used 8 mice/group in up to 3 experiments.

iNOS = test: LPS-induced iNOS mRNA in RAW 264.7 macrophages (RT-PCR); type: cell-based, mouse; settings: RAW 264.7, LPS 3 hours, C10 in DMSO or vehicle B
Procedure: In macrophages NO production occurs as a result of LPS induction of iNOS (C. Bogdan, Nat Immunol, 2:907-16 (2001)) and is a process that depends on autocrine signaling by IFN-β. We used standard reverse transcriptase polymerase chain reaction to detect the inhibition of LPS induced iNOS transcription in the presence of C10 (FIG. 13A). The RAW 264.7 cells were treated with LPS in the presence of C10, its vehicle control, DMSO, or another excipient vehicle (compound B; see Table 8) for 3 hours. Table 8 establishes that C10 is effective in vivo in the mouse toxic shock model and in FRTL-5 cell assays in vitro when solubilized in water in the presence of the compound B excipient, i.e., water soluble forms of C10 are effective in both in vivo and in vitro just as C10 in DMSO. In the presence of DMSO control (FIG. 13A, lane 4) or vehicle B only (FIG. 13A, lane 5) little or no iNOS reduction was detected respectively when compared to LPS only (FIG. 13A lane 3).
Standard reverse transcriptase PCR for INOS: RNA was isolated as described above and treated with DNAse a described above. […] of DNA free RNA was then reverse transcribed with the Advantage® RT-for PCR kit (BD Biosciences, Palo Alto, Calif.) in a total volume of 20 μl. Five μl of cDNA was then amplified using ExTaq™ DNA polymerase (Takara, Madison, Wis.) in a reaction volume of 25 μl. […]

TLR3 = test: Inhibition of IFN-β- or dsRNA transfection-increased TLR3, PKR, MHC class I RNA in FRTL-5 thyrocytes (Northern/PCR); type: cell-based, rat; settings: for % TLR3 Inhibition vs Control: 3 replicates
Procedure: FIG. 4. Phenylmethimazole (C10) and Methimazole (MMI) inhibit the ability of IFN-β to increase TLR3, PKR, and MHC class I RNA levels in FRTL-5 thyrocytes. Cells were incubated with or without 100 U/ml of IFN-β for 3 hours in the presence of dimethyl sulfoxide (DMSO), C10, or MMI. DMSO is the vehicle control. Northern blots were performed with 20 ug of total RNA to detect TLR 3, PKR, MHC I, and GAPDH using radiolabeled cDNA probes. Data are representative of multiple experiments. As was the case for Poly (I:C) transfection in FIG. 2B, IFN-β increased TLR3.
We evaluated the ability of C10 and MMI to inhibit TLR3 expression and signaling. C10 prevented the ability of dsRNA transfection and incubation with IFN-β to increase TLR3RNA levels in FRTL-5 cells, as measured by PCR (FIG. 4A). […] DMSO is the vehicle for C10 because of the hydrophobicity of C10; it had no significant effect on basal activity and was used as the control value in all experiments described herein.
The C-10 and MMI reduced the ability of IFN-β to increase PKR and MHC class I RNA levels, albeit relatively less than TLR3 (FIG. 4B). […] We questioned the C10 mechanism of action.
RNA Isolation and Northern Analysis. […] .
RT-PCR. DNA was removed from total RNA using the DNA-free Kit (Ambion) according to the manufacturer's instructions. One μg of RNA was used to synthesize cDNA using the Advantage RT-for-PCR Kit (BD Biosciences) according to the manufacturer's protocol. Fifty ng of cDNA was subsequently used for PCR of TLR-3, and β-Actin; 250 ng of cDNA was used for PCR of IFN-β. The primers used for amplification of human TLR-3 and β-Actin have been previously described (K. U. Saikh, et al., Clin Diagn Lab Immunol, 10:1065-73 (2003)).

[1] = + CVB4 Edwards Coxsackie virus, Dirty facility

Cn1c(-c2ccccc2)cnc1S [Compound C10, 5-Phenylmethimazole]
glucosuria and death in Coxsackie's virus induced NOD mouse model of diabetes (NOD mice): effective in retarding glucosuria and death
Glucosuria % of Total, Week 1 (NOD mice; [1]): 0 % of Total
Glucosuria % of Total, Week 4 (NOD mice; [1]): 0 % of Total
Glucosuria % of Total, Week 8 (NOD mice; [1]): 20 % of Total
Glucosuria % of Total, Week 12 (NOD mice; [1]): 30 % of Total
Glucosuria % of Total, Week 1 (NOD mice; Clean facility): 0 % of Total
Glucosuria % of Total, Week 4 (NOD mice; Clean facility): 0 % of Total
Glucosuria % of Total, Week 8 (NOD mice; Clean facility): 0 % of Total
Glucosuria % of Total, Week 12 (NOD mice; Clean facility): 20 % of Total
Glucosuria % of Total, Week 16 (NOD mice; Clean facility): 40 % of Total
Glucosuria % of Total, Week 20 (NOD mice; Clean facility): 100 % of Total
Glucosuria % of Total, Week 1 (NOD mice; Dirty facility): 0 % of Total
Glucosuria % of Total, Week 4 (NOD mice; Dirty facility): 0 % of Total
Glucosuria % of Total, Week 8 (NOD mice; Dirty facility): 0 % of Total
Glucosuria % of Total, Week 12 (NOD mice; Dirty facility): 0 % of Total
LPS induced iNOS mRNA (iNOS): strong reduction
decrease of TLR3 and IFN-β-mRNA levels in thyrocytes vs solutions with DMSO (TLR3; C10 stored in aqueous cyclodextrin preparation for 6 weeks prior to use): equally effective
IFN-β increased MHC class I and PKR mRNA levels (TLR3; FRTL-5, 100 U/ml IFN-β 3 hours): significantly decreased
IFN-β-increased TLR3 RNA levels (TLR3; FRTL-5, 100 U/ml IFN-β 3 hours, C10 0.5 mM, MMI 5 mM): totally prevented
IFN-β increased MHC class I and PKR mRNA levels (TLR3; FRTL-5, 100 U/ml IFN-β 3 hours, listed as C-10): reduced
basal level of TLR 3 mRNA (TLR3; FRTL-5, no IFN-β): slightly reduced
% TLR3 Inhibition vs Control (TLR3; IFN-β increased TLR3 RNA, C10 0.1 mM in Excip.): 90%
% TLR3 Inhibition vs Control (TLR3; dsRNA increased TLR3 RNA, C10 0.1 mM in DMSO): 90%
